Reference: patent US12030878B2 (BRISTOL-MYERS SQUIBB COMPANY, priority 2017, dated 2024)

Experiments:
Format in all cases: cell-based
[1] = target: T1, human TLR7 (Homo sapiens, UniProt Q9NYK1); experiment: TLR7 inhibition reporter assay (HEK-Blue SEAP); conditions: HEK-Blue cells overexpressing human TLR7, stimulated with gardiquimod 7.5 μM, 22 hour incubation
T1 construct: host or cells: HEK-Blue cells
T1 sequence (Q9NYK1 27-1049): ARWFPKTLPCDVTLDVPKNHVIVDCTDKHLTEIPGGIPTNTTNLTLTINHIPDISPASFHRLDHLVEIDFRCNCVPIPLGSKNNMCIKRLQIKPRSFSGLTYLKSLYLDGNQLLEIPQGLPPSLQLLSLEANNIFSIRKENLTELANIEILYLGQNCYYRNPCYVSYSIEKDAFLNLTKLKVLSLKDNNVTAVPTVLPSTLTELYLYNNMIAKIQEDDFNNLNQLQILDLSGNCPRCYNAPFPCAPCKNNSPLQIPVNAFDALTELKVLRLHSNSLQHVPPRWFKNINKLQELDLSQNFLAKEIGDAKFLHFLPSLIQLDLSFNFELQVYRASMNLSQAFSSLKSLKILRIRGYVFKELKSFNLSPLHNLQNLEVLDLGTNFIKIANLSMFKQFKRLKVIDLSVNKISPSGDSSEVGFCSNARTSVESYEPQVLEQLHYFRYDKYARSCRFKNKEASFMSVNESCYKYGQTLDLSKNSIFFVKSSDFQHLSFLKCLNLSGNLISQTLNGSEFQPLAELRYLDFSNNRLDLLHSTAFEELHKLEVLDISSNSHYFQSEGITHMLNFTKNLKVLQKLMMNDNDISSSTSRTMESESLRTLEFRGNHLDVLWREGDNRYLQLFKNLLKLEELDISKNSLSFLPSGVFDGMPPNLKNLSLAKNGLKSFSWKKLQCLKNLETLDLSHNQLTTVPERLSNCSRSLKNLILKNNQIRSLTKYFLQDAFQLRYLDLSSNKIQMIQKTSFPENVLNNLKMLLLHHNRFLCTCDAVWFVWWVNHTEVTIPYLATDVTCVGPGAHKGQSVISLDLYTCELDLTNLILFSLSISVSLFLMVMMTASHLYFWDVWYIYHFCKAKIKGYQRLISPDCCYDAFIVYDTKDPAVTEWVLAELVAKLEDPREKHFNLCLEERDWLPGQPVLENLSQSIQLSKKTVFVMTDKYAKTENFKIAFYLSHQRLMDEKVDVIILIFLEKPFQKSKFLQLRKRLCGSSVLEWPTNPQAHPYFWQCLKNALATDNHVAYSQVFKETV
How it was run: (§1)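 SEAP read-out via HEK-Blue Detection medium after 22 h at 37 °C; percent inhibition relative to agonist-plus-DMSO and known-inhibitor wells. Agonists: TLR7 gardiquimod 7.5 μM, TLR8 R848 15.9 μM, TLR9 ODN2006 5 nM. Dose range 0.05 nM–50 μM, 30 min compound pre-treatment at RT.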

[2] = target: T2, human TLR8 (Homo sapiens, UniProt Q9NR97); experiment: TLR8 inhibition reporter assay (HEK-Blue SEAP); conditions: HEK-Blue cells overexpressing human TLR8, stimulated with R848 15.9 μM, 22 hour incubation
T2 construct: host or cells: HEK-Blue cells
T2 sequence (Q9NR97 27-1041): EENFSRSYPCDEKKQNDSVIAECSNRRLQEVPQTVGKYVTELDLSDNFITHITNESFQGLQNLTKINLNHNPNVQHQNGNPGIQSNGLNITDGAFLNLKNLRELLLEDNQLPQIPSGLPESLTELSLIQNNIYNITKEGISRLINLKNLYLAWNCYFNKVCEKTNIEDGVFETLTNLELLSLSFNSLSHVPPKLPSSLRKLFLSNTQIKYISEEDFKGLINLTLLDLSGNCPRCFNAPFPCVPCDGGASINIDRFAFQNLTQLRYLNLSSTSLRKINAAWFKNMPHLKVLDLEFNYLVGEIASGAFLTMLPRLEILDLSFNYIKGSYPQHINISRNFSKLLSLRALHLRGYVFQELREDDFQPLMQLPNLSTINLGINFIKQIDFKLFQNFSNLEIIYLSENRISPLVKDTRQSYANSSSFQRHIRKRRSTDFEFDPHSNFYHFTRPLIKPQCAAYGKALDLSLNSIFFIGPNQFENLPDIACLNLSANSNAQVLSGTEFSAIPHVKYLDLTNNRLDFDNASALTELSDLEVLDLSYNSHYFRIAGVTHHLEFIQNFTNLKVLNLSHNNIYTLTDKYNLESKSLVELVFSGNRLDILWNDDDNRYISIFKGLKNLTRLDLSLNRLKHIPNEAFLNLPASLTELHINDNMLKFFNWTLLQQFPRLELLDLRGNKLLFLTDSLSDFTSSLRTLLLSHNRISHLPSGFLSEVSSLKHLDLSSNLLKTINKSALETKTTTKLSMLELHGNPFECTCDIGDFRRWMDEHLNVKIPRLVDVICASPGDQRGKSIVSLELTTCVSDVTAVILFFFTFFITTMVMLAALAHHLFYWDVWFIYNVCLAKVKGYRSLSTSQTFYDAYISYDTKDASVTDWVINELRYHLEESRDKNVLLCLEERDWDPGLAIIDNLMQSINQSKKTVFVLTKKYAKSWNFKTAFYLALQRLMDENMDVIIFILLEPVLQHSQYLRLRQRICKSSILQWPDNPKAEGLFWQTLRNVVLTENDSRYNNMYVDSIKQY
How it was run: as §1

[3] = target: T3, human TLR9 (Homo sapiens, UniProt Q9NR96); experiment: TLR9 inhibition reporter assay (HEK-Blue SEAP); conditions: HEK-Blue cells overexpressing human TLR9, stimulated with ODN2006 5 nM, 22 hour incubation
T3 construct: host or cells: HEK-Blue cells
T3 sequence (Q9NR96 26-1032): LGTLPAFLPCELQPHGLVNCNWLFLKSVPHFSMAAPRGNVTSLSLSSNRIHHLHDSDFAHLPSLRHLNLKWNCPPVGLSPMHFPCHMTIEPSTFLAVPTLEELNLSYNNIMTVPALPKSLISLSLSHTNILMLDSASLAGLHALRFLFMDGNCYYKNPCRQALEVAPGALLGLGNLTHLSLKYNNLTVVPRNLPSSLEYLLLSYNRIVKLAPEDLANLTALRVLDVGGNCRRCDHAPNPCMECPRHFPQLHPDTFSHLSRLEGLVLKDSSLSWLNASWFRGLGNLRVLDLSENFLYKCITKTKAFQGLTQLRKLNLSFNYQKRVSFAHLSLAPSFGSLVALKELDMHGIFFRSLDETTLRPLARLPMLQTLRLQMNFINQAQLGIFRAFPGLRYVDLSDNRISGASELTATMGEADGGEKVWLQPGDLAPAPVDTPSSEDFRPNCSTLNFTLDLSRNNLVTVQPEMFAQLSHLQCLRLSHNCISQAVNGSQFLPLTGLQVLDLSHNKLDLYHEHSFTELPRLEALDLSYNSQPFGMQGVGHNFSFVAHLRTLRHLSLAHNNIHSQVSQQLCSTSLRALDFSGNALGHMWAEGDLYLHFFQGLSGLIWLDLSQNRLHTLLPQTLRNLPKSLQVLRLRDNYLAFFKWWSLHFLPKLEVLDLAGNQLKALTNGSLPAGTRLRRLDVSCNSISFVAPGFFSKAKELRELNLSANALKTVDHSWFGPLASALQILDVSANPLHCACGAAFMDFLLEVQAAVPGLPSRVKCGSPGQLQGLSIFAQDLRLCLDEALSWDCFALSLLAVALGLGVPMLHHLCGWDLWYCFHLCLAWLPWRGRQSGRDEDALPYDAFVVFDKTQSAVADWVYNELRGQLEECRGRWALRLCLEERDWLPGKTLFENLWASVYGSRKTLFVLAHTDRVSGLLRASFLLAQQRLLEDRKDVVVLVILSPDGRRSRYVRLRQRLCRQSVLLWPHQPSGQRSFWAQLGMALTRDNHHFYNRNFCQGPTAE
How it was run: as §1

SMILES | IC50 [1] | IC50 [2] | IC50 [3]
CNC(=O)CN1CCC(COc2ccc3[nH]c(-c4cn(C)c(=O)c(C)c4C)c(C(C)C)c3c2)CC1 [Example 116, 2-(4-(((3-isopropyl-2-(1,4,5-trimethyl-6-oxo-1,6-dihydropyridin-3-yl)-1H-indol-5-yl)oxy)methyl)piperidin-1-yl)-N-methylacetamide] | 16.1 nM | 5.3 nM | 17000 nM
Cc1c(-c2[nH]c3ccc(OC4CCN(CC(=O)N(C)C)CC4)cc3c2C(C)C)cn2cnnc2c1C [Example 90, 2-(4-((2-(7,8-dimethyl-[1,2,4]triazolo[4,3-a]pyridin-6-yl)-3-isopropyl-1H-indol-5-yl)oxy)piperidin-1-yl)-N,N-dimethylacetamide] | 8.3 nM | 13.3 nM | 12900 nM
Cc1cc(-c2[nH]c3ccc(O[C@H]4CCCN(C)C4)cc3c2C(C)C)cn(C)c1=O [Example 37, (S)-5-(3-isopropyl-5-((1-methylpiperidin-3-yl)oxy)-1H-indol-2-yl)-1,3-dimethylpyridin-2(1H)-one] | 12.8 nM | 56.3 nM | 46800 nM
Cc1cc(-c2[nH]c3ccc(OCC4CCN(C5CCOCC5)CC4)cc3c2C(C)C)cn2ncnc12 [Example 44, 6-(3-isopropyl-5-((1-(tetrahydro-2H-pyran-4-yl)piperidin-4-yl)methoxy)-1H-indol-2-yl)-8-methyl-[1,2,4]triazolo[1,5-a]pyridine] | 0.6 nM | 1.4 nM | 1030 nM
Cc1cc(-c2[nH]c3ccc(OC4CCN(C(=O)CN(C)C)CC4)cc3c2C(C)C)cc(C)n1 [Example 95, 2-(dimethylamino)-1-(4-((2-(2,6-dimethylpyridin-4-yl)-3-isopropyl-1H-indol-5-yl)oxy)piperidin-1-yl)ethanone] | 0.5 nM | 10.4 nM | 419 nM
Cc1cc(-c2[nH]c3ccc(OC4CCC(N(C)C)CC4)cc3c2C(C)C)cn2ncnc12 (stereo not drawn) [Example 64, 4-((3-isopropyl-2-(8-methyl-[1,2,4]triazolo[1,5-a]pyridin-6-yl)-1H-indol-5-yl)oxy)-N,N-dimethylcyclohexan-1-amine] | 0.7 nM | 10.6 nM | 2570 nM
Cc1c(-c2[nH]c3ccc(OC4CCN(C5COC5)CC4)cc3c2C(C)C)cn(C)c(=O)c1C [Example 50, 5-(3-isopropyl-5-((1-(oxetan-3-yl)piperidin-4-yl)oxy)-1H-indol-2-yl)-1,3,4-trimethylpyridin-2(1H)-one] | 123 nM | 21.3 nM | > 50000 nM
Cc1cc(-c2[nH]c3ccc(OCc4cccnc4)cc3c2C(C)C)ccn1 [Example 169, 3-isopropyl-2-(2-methylpyridin-4-yl)-5-(pyridin-3-ylmethoxy)-1H-indole] | 200 nM | 181 nM | 28400 nM
CNC(=O)CN1CCC(COc2ccc3[nH]c(-c4cc(C)nc(C)c4)c(C(C)C)c3c2)CC1 [Example 110, 2-(4-(((2-(2,6-dimethylpyridin-4-yl)-3-isopropyl-1H-indol-5-yl)oxy)methyl)piperidin-1-yl)-N-methylacetamide] | 9.6 nM | 7.3 nM | 492 nM

Other lines, results leading:

IC50 [1] | IC50 [2] | IC50 [3] | SMILES
629 nM | 216 nM | 886 nM | Cc1cc(-c2[nH]c3ccc(OCC(=O)N4CCCC5(CNC5)C4)cc3c2C(C)C)ccn1 [Example 140, 2-((3-isopropyl-2-(2-methylpyridin-4-yl)-1H-indol-5-yl)oxy)-1-(2,6-diazaspiro[3.5]nonan-6-yl)ethan-1-one]
2.9 nM | 2.1 nM | 241 nM | Cc1cc(-c2[nH]c3ccc(OC4CCNCC4)cc3c2C(C)C)cc(C)n1 [Example 1, 2-(2,6-dimethylpyridin-4-yl)-3-isopropyl-5-(piperidin-4-yloxy)-1H-indole]
146 nM | 9 nM | 1810 nM | CCc1c(-c2ccnc(C)c2)[nH]c2ccc(OC3CCNCC3)cc12 [Example 163, 3-ethyl-2-(2-methylpyridin-4-yl)-5-(piperidin-4-yloxy)-1H-indole]
954 nM | 118 nM | 1220 nM | CCc1c(-c2ccnc(C)c2)[nH]c2ccc(OC3CCN(C(C)C)C3)cc12 (stereo not drawn) [Example 190, 3-ethyl-5-((1-isopropylpyrrolidin-3-yl)oxy)-2-(2-methylpyridin-4-yl)-1H-indole]
37.7 nM | 3.5 nM | 1830 nM | Cc1cc(-c2[nH]c3ccc(OCC4CCCNC4)cc3c2C(C)C)ccn1 (stereo not drawn) [Example 180, 3-isopropyl-2-(2-methylpyridin-4-yl)-5-(piperidin-3-ylmethoxy)-1H-indole]
10.5 nM | 1.5 nM | 663 nM | COCCN1CCC(Oc2ccc3[nH]c(-c4cc(C)nc(C)c4)c(C(C)C)c3c2)CC1 [Example 75, 2-(2,6-dimethylpyridin-4-yl)-3-isopropyl-5-((1-(2-methoxyethyl)piperidin-4-yl)oxy)-1H-indole]
